Results: US20250120397A1, “PEST CONTROL METHOD” (National Chung Hsing University, priority 2023, published 2025)

Key:
Assay type in all cases: in vivo
[1] = tested on: Anoplolepis longipes (long-legged ant); experiment: 24-hour fumigation in sealed 1-L container, fatality rate
Source text: (§1) Sitophilus oryzae (rice weevil), Tetranychus urticae (two-spotted spider mite), Lasioderma serricorne (cigarette beetle), Blattella germanica (German cockroach), Anoplolepis longipes (long-legged ant), and Solenopsis invicta (red imported fire ant) were used as the test objects of this experiment and were each put into several 1-L containers. A carrier containing an isododecane (or 2,2,4,6,6-pentamethylheptane to be exact) at each of a plurality of predetermined concentrations (i.e., 2.5, 5, 10, 20, 30, and 40 mg) was then put into one of the 1-L containers of each test object, before the containers were sealed to start a 24-hour fumigation process. After that, the containers were aerated, and the numbers of deaths of each kind of pests were counted.
(§2) Sitophilus oryzae, Tetranychus urticae, Lasioderma serricorne, Blattella germanica, Anoplolepis longipes, and Solenopsis invicta were each put into several 1-L containers. A carrier containing each of n-dodecane, n-decane, 2-methylnonane (an isodecane), and 2,2,4,6,6-pentamethylheptane (an isododecane) at a concentration of 30 mg was then put into one of the 1-L containers of each test object, before the containers were sealed to start a 24-hour fumigation process. After that, the containers were aerated, and the numbers of deaths of each kind of pests were counted.

[2] = tested on: Blattella germanica (German cockroach); experiment: as above
Source text: as §1, §2

[3] = tested on: Lasioderma serricorne (cigarette beetle); experiment: as above
Source text: as §1, §2

[4] = tested on: Sitophilus oryzae (rice weevil); experiment: as above
Source text: as §1, §2

[5] = tested on: Solenopsis invicta (red imported fire ant); experiment: as above
Source text: as §1, §2

[6] = tested on: Tetranychus urticae (two-spotted spider mite); experiment: as above
Source text: as §1, §2

mosquito larvae = experiment: Mosquito larvae killing in 100 mL deionized water, 24 hours, fatality rate; conditions: uncovered
Method: Artificially raised non-pathogenic mosquito larvae were divided into a plurality of groups each including 30 larvae. Each group of larvae was put into a 1-L container together with 100 mL of deionized water. Then, a reagent containing a spreading agent for agricultural use as well as an isododecane and an isohexadecane in a ratio of 4:1 was added into the deionized water in each container at one of a plurality of predetermined doses and thoroughly mixed. The containers were left uncovered. After 24 hours, the numbers of deaths of the mosquito larvae were counted.

[7] = Table 2: compound at 30 mg in 1-L container

Compound: CC(CC(C)(C)C)CC(C)(C)C [2,2,4,6,6-pentamethylheptane]
- Fatality rate (%) Anoplolepis longipes [1, 7]: 100%
- Fatality rate (%) Anoplolepis longipes ([1]; dose 2.5 mg in 1-L container): 8%
- Fatality rate (%) Anoplolepis longipes ([1]; dose 5 mg in 1-L container): 14%
- Fatality rate (%) Anoplolepis longipes ([1]; dose 10 mg in 1-L container): 32%
- Fatality rate (%) Anoplolepis longipes ([1]; dose 20 mg in 1-L container): 80%
- Fatality rate (%) Anoplolepis longipes ([1]; dose 30 mg in 1-L container): 100%
- Fatality rate (%) Anoplolepis longipes ([1]; dose 40 mg in 1-L container): 100%
- Fatality rate (%) Blattella germanica [2, 7]: 100%
- Fatality rate (%) Blattella germanica ([2]; dose 2.5 mg in 1-L container): 7%
- Fatality rate (%) Blattella germanica ([2]; dose 5 mg in 1-L container): 18%
- Fatality rate (%) Blattella germanica ([2]; dose 10 mg in 1-L container): 38%
- Fatality rate (%) Blattella germanica ([2]; dose 20 mg in 1-L container): 88.89%
- Fatality rate (%) Blattella germanica ([2]; dose 30 mg in 1-L container): 100%
- Fatality rate (%) Blattella germanica ([2]; dose 40 mg in 1-L container): 100%
- Fatality rate (%) Lasioderma serricorne [3, 7]: 100%
- Fatality rate (%) Lasioderma serricorne ([3]; dose 2.5 mg in 1-L container): 5%
- Fatality rate (%) Lasioderma serricorne ([3]; dose 5 mg in 1-L container): 18%
- Fatality rate (%) Lasioderma serricorne ([3]; dose 10 mg in 1-L container): 25%
- Fatality rate (%) Lasioderma serricorne ([3]; dose 20 mg in 1-L container): 42.11%
- Fatality rate (%) Lasioderma serricorne ([3]; dose 30 mg in 1-L container): 100%
- Fatality rate (%) Lasioderma serricorne ([3]; dose 40 mg in 1-L container): 100%
- Fatality rate (%) Sitophilus oryzae [4, 7]: 100%
- Fatality rate (%) Sitophilus oryzae ([4]; dose 2.5 mg in 1-L container): 0%
- Fatality rate (%) Sitophilus oryzae ([4]; dose 5 mg in 1-L container): 7%
- Fatality rate (%) Sitophilus oryzae ([4]; dose 10 mg in 1-L container): 22%
- Fatality rate (%) Sitophilus oryzae ([4]; dose 20 mg in 1-L container): 30%
- Fatality rate (%) Sitophilus oryzae ([4]; dose 30 mg in 1-L container): 100%
- Fatality rate (%) Sitophilus oryzae ([4]; dose 40 mg in 1-L container): 100%
- Fatality rate (%) Solenopsis invicta [5, 7]: 100%
- Fatality rate (%) Solenopsis invicta ([5]; dose 2.5 mg in 1-L container): 32%
- Fatality rate (%) Solenopsis invicta ([5]; dose 5 mg in 1-L container): 55%
- Fatality rate (%) Solenopsis invicta ([5]; dose 10 mg in 1-L container): 100%
- Fatality rate (%) Solenopsis invicta ([5]; dose 20 mg in 1-L container): 100%
- Fatality rate (%) Solenopsis invicta ([5]; dose 30 mg in 1-L container): 100%
- Fatality rate (%) Solenopsis invicta ([5]; dose 40 mg in 1-L container): 100%
- Fatality rate (%) Tetranychus urticae [6, 7]: 100%
- Fatality rate (%) Tetranychus urticae ([6]; dose 2.5 mg in 1-L container): 45%
- Fatality rate (%) Tetranychus urticae ([6]; dose 5 mg in 1-L container): 72%
- Fatality rate (%) Tetranychus urticae ([6]; dose 10 mg in 1-L container): 100%
- Fatality rate (%) Tetranychus urticae ([6]; dose 20 mg in 1-L container): 100%
- Fatality rate (%) Tetranychus urticae ([6]; dose 30 mg in 1-L container): 100%
- Fatality rate (%) Tetranychus urticae ([6]; dose 40 mg in 1-L container): 100%
- Fatality rate (%) of mosquito larvae (mosquito larvae; dose 2.5 mg in 100 mL deionized water): 33%
- Fatality rate (%) of mosquito larvae (mosquito larvae; dose 5 mg in 100 mL deionized water): 50%
- Fatality rate (%) of mosquito larvae (mosquito larvae; dose 10 mg in 100 mL deionized water): 80%
- Fatality rate (%) of mosquito larvae (mosquito larvae; dose 20 mg in 100 mL deionized water): 100%
- Fatality rate (%) of mosquito larvae (mosquito larvae; dose 40 mg in 100 mL deionized water): 100%

Compound: CCCCCCCC(C)C [2-methylnonane]
- Fatality rate (%) Anoplolepis longipes [1, 7]: 90%
- Fatality rate (%) Blattella germanica [2, 7]: 100%
- Fatality rate (%) Lasioderma serricorne [3, 7]: 100%
- Fatality rate (%) Sitophilus oryzae [4, 7]: 100%
- Fatality rate (%) Solenopsis invicta [5, 7]: 100%
- Fatality rate (%) Tetranychus urticae [6, 7]: 100%

Compound: CCCCCCCCCC [n-decane]
- Fatality rate (%) Anoplolepis longipes [1, 7]: 75%
- Fatality rate (%) Blattella germanica [2, 7]: 100%
- Fatality rate (%) Lasioderma serricorne [3, 7]: 100%
- Fatality rate (%) Sitophilus oryzae [4, 7]: 100%
- Fatality rate (%) Solenopsis invicta [5, 7]: 100%
- Fatality rate (%) Tetranychus urticae [6, 7]: 100%

Compound: CCCCCCCCCCCC [n-dodecane]
- Fatality rate (%) Anoplolepis longipes [1, 7]: 25%
- Fatality rate (%) Blattella germanica [2, 7]: 22.22%
- Fatality rate (%) Lasioderma serricorne [3, 7]: 100%
- Fatality rate (%) Sitophilus oryzae [4, 7]: 50%
- Fatality rate (%) Solenopsis invicta [5, 7]: 5%
- Fatality rate (%) Tetranychus urticae [6, 7]: 95%
